Data: ChEMBL document CHEMBL5113478, “7-Azaindole, 2,7-diazaindole, and 1H-pyrazole as core structures for novel anticancer agents with potential chemosensitizing properties” (Eur J Med Chem, 2022)
Calls of active or inactive are those of the source. The rule behind the calls is not given here.

Key:
[1] = tested on: MOLT-4; assay: Antiproliferative activity against human MOLT-4 cells assessed as […] cell proliferation at 10 uM incubated for 48 hrs by WST-1 assay relative to control; format: functional
[2] = tested on: MOLT-4; assay: Antiproliferative activity against human MOLT-4 cells assessed as […] cell proliferation at 10 uM incubated for 48 hrs in presence of 2 uM of CDDP by WST-1 assay relative to control; format: functional
[3] = tested on: Jurkat; assay: Antiproliferative activity against human Jurkat cells assessed as […] cell proliferation at 10 uM incubated for 48 hrs by WST-1 assay relative to control; format: functional
[4] = tested on: Jurkat; assay: Antiproliferative activity against human Jurkat cells assessed as […] cell proliferation at 10 uM incubated for 48 hrs in presence of 2 uM of CDDP by WST-1 assay relative to control; format: functional
[5] = tested on: A2780; assay: Antiproliferative activity against human A2780 cells assessed as […] cell proliferation at 10 uM incubated for 48 hrs by WST-1 assay relative to control; format: functional
[6] = tested on: A2780; assay: Antiproliferative activity against human A2780 cells assessed as […] cell proliferation at 10 uM incubated for 48 hrs in presence of 2 uM of CDDP by WST-1 assay relative to control; format: functional
[7] = tested on: MCF7; assay: Antiproliferative activity against human MCF7 cells assessed as […] cell proliferation at 10 uM incubated for 48 hrs by WST-1 assay relative to control; format: functional
[8] = tested on: MCF7; assay: Antiproliferative activity against human MCF7 cells assessed as […] cell proliferation at 10 uM incubated for 48 hrs in presence of 10 uM of CDDP by WST-1 assay relative to control; format: functional
[9] = tested on: A549; assay: Antiproliferative activity against human A549 cells assessed as […] cell proliferation at 10 uM incubated for 48 hrs by WST-1 assay relative to control; format: functional
[10] = tested on: A549; assay: Antiproliferative activity against human A549 cells assessed as […] cell proliferation at 10 uM incubated for 48 hrs in presence of 15 uM of CDDP by WST-1 assay relative to control; format: functional
[11] = tested on: SAOS-2; assay: Antiproliferative activity against human SAOS-2 cells assessed as […] cell proliferation at 10 uM incubated for 48 hrs by WST-1 assay relative to control; format: functional
[12] = tested on: SAOS-2; assay: Antiproliferative activity against human SAOS-2 cells assessed as […] cell proliferation at 10 uM incubated for 48 hrs in presence of 15 uM of CDDP by WST-1 assay relative to control; format: functional
[13] = tested on: PANC-1; assay: Antiproliferative activity against human PANC-1 cells assessed as […] cell proliferation at 10 uM incubated for 48 hrs by WST-1 assay relative to control; format: functional
[14] = tested on: PANC-1; assay: Antiproliferative activity against human PANC-1 cells assessed as […] cell proliferation at 10 uM incubated for 48 hrs in presence of 15 uM of CDDP by WST-1 assay relative to control; format: functional
[15] = tested on: HT-29; assay: Antiproliferative activity against human HT-29 cells assessed as […] cell proliferation at 10 uM incubated for 48 hrs by WST-1 assay relative to control; format: functional
[16] = tested on: HT-29; assay: Antiproliferative activity against human HT-29 cells assessed as […] cell proliferation at 10 uM incubated for 48 hrs in presence of 15 uM of CDDP by WST-1 assay relative to control; format: functional
[17] = tested on: HeLa; assay: Antiproliferative activity against human HeLa cells assessed as […] cell proliferation at 10 uM incubated for 48 hrs by WST-1 assay relative to control; format: functional
[18] = molecular target: T1, Aurora kinase A (Homo sapiens) (UniProt O14965); assay: Inhibition of human Aurora-A assessed as residual activity at 10 uM relative to control
T1 sequence (whole entry): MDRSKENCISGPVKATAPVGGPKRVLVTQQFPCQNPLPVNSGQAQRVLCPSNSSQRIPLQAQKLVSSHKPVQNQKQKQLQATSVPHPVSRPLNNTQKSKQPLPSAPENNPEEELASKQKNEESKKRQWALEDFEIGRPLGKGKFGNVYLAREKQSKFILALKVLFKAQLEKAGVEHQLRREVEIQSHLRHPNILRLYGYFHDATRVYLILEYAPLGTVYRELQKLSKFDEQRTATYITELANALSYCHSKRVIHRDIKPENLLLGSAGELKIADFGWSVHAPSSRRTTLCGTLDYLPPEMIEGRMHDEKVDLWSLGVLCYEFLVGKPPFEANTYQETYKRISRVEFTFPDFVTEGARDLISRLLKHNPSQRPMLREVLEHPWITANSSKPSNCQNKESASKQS

[19] = molecular target: T2, Cytoplasmic tyrosine-protein kinase BMX (Homo sapiens) (UniProt P51813); assay: Inhibition of human Bmx assessed as residual activity at 10 uM relative to control
T2 sequence (whole entry): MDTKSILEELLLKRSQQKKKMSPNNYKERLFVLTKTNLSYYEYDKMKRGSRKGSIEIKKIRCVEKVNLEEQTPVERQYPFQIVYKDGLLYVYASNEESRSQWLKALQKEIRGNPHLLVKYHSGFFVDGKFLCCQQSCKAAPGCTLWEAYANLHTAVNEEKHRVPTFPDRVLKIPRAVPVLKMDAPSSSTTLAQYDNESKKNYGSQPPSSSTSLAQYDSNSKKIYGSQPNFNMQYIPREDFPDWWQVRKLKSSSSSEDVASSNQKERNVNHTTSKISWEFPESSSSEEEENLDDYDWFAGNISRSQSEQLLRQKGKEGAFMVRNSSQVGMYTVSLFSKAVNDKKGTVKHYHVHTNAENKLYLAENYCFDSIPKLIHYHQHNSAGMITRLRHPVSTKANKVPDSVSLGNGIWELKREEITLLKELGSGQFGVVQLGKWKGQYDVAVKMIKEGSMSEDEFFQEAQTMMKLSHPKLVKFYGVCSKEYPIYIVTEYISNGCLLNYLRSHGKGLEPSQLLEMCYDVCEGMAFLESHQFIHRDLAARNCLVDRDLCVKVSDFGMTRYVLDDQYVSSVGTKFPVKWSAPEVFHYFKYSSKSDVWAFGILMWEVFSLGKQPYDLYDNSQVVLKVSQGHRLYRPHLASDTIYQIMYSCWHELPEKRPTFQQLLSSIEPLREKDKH

[20] = tested on: Mast/stem cell growth factor receptor Kit (Homo sapiens), P10721 [V560G]; assay: Inhibition of human cKit V560G mutant assessed as residual activity at 10 uM relative to control
[21] = molecular target: Fibroblast growth factor receptor 2 (Homo sapiens) (UniProt P21802); assay: Inhibition of human FGFR2 assessed as residual activity at 10 uM relative to control
[22] = molecular target: Fibroblast growth factor receptor 3 (Homo sapiens) (UniProt P22607); assay: Inhibition of human FGFR3 assessed as residual activity at 10 uM relative to control
[23] = molecular target: Vascular endothelial growth factor receptor 1 (Homo sapiens) (UniProt P17948); assay: Inhibition of human FLT1 assessed as residual activity at 10 uM relative to control
[24] = molecular target: Vascular endothelial growth factor receptor 3 (Homo sapiens) (UniProt P35916); assay: Inhibition of human FLT4 assessed as residual activity at 10 uM relative to control
[25] = molecular target: Vascular endothelial growth factor receptor 2 (Homo sapiens) (UniProt P35968); assay: Inhibition of human KDR assessed as residual activity at 10 uM relative to control
[26] = molecular target: Protein kinase C alpha type (Homo sapiens) (UniProt P17252); assay: Inhibition of human PKCalpha assessed as residual activity at 10 uM relative to control
[27] = molecular target: Proto-oncogene tyrosine-protein kinase receptor Ret (Homo sapiens) (UniProt P07949); assay: Inhibition of human Ret assessed as residual activity at 10 uM relative to control
[28] = molecular target: Angiopoietin-1 receptor (Homo sapiens) (UniProt Q02763); assay: Inhibition of human Tie2 assessed as residual activity at 10 uM relative to control
[29] = molecular target: High affinity nerve growth factor receptor (Homo sapiens) (UniProt P04629); assay: Inhibition of human TrkA assessed as residual activity at 10 uM relative to control
[30] = molecular target: ATR/ATRIP (Homo sapiens) (UniProt Q13535+Q8WXE1); assay: Inhibition of human ATR/ATRIP assessed as residual activity at 10 uM relative to control; format: protein-complex assay
[31] = tested on: 1321N1; assay: Cytotoxicity against human 1321N1 cells assessed as reduction in cell viability at 15 uM incubated for 48 hrs by MTT assay; format: functional, cell-based
[32] = tested on: GBM; assay: Cytotoxicity against patient-derived human GBM cells assessed as reduction in cell viability at 15 uM incubated for 48 hrs by MTT assay; format: functional
[33] = tested on: HeLa; assay: Antiproliferative activity against human HeLa cells assessed as […] cell proliferation at 10 uM incubated for 48 hrs in presence of 15 uM of CDDP by WST-1 assay relative to control; format: functional
[34] = tested on: 1321N1; assay: Chemo-sensitizing activity against human 1321N1 cells at 15 uM incubated for 48 hrs in presence of TMZ by MTT assay; format: functional, cell-based

Chain of Angiopoietin-1 receptor (Homo sapiens) (Q02763 whole entry): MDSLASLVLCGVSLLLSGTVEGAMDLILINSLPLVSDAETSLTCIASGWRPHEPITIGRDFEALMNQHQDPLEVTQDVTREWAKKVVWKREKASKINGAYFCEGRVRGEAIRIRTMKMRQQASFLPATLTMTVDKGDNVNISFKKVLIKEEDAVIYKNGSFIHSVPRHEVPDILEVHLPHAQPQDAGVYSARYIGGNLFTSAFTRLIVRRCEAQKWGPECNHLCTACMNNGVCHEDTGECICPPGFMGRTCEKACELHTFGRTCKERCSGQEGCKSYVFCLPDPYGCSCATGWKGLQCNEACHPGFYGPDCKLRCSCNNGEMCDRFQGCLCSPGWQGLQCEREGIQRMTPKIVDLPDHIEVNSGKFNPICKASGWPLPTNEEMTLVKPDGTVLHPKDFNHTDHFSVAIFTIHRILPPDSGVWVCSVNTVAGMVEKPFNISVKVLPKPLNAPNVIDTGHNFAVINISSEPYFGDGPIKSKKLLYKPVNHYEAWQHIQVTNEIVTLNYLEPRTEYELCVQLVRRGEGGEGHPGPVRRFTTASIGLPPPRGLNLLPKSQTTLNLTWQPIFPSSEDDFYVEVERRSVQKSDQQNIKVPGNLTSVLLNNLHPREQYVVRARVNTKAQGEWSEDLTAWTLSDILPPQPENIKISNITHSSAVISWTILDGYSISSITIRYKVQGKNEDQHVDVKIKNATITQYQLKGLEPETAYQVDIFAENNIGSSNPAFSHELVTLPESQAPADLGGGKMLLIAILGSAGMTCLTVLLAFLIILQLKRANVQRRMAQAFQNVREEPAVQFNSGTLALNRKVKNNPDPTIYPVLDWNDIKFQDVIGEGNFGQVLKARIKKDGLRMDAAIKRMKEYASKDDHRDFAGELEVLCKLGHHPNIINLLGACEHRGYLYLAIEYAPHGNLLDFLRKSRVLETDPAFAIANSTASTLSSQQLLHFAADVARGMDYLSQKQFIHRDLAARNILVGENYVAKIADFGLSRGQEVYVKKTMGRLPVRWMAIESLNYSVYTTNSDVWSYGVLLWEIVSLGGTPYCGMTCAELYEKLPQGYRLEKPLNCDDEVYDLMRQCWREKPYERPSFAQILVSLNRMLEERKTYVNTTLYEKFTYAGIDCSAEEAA
Chain of Vascular endothelial growth factor receptor 1 (Homo sapiens) (P17948 whole entry): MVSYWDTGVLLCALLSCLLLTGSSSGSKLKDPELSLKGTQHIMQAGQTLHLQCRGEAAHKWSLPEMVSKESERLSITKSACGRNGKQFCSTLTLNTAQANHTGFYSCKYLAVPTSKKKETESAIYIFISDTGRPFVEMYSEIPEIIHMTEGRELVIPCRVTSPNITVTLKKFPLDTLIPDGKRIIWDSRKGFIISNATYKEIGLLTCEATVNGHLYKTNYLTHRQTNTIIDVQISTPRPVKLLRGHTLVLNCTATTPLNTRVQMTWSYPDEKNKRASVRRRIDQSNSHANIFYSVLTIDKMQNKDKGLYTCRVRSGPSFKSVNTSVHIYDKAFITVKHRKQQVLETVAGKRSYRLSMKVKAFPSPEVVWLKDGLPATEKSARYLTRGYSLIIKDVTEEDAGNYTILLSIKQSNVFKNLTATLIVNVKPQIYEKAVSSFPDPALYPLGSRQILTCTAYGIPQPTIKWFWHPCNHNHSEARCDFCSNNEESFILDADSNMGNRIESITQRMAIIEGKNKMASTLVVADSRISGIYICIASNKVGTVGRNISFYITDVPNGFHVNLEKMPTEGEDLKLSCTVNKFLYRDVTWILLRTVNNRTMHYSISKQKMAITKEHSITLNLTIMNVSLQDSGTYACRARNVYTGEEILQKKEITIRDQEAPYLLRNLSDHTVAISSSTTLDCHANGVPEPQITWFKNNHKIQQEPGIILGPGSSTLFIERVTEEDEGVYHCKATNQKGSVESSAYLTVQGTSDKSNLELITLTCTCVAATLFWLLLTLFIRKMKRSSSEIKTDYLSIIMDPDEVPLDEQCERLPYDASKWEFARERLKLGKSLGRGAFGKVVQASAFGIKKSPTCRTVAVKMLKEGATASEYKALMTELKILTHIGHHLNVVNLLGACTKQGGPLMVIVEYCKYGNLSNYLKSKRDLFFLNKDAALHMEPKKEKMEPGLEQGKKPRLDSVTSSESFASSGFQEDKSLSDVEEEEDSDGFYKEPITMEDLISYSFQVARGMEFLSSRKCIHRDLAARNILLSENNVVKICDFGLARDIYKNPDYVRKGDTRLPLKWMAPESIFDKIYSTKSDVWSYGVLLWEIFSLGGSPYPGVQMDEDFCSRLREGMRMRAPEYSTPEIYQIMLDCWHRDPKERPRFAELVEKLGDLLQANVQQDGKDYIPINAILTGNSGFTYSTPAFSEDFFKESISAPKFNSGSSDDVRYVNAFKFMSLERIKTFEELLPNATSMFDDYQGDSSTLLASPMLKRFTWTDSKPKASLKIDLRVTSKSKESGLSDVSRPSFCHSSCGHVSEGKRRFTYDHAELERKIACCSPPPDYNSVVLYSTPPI
Chain of Vascular endothelial growth factor receptor 2 (Homo sapiens) (P35968 whole entry): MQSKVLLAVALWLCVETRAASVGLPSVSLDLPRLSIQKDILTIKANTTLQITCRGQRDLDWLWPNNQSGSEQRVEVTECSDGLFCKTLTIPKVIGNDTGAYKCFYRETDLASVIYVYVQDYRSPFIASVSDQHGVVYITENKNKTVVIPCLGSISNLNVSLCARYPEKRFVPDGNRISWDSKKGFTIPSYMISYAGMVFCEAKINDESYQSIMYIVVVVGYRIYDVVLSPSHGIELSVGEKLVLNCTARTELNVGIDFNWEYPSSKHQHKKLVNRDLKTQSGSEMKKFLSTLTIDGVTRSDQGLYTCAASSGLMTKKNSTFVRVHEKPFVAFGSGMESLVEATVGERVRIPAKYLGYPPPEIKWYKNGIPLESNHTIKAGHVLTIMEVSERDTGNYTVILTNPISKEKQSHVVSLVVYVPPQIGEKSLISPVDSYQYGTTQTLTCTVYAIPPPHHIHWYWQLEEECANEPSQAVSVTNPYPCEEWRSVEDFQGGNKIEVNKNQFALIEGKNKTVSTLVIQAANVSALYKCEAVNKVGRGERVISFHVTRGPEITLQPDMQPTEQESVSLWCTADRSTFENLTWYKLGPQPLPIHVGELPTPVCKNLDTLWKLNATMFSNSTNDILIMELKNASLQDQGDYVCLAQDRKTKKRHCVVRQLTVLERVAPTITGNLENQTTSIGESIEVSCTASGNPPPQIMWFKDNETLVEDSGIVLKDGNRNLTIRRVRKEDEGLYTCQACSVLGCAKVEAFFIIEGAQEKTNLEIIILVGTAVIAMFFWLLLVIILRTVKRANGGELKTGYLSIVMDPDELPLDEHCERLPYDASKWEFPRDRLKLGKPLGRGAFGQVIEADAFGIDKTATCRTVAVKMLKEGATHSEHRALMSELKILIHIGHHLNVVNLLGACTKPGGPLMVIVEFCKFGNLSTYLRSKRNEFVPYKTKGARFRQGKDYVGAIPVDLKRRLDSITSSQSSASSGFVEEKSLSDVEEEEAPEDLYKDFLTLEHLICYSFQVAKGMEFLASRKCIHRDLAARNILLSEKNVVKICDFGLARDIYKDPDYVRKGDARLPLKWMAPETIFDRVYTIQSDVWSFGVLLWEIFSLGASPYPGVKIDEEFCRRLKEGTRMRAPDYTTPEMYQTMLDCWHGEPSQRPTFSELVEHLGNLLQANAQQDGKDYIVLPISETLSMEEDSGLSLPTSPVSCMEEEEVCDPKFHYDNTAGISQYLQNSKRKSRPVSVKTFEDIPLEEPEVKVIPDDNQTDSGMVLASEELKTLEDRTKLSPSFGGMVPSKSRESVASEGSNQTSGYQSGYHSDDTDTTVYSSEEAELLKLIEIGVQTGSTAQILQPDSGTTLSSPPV

SMILES	Activity [1] [%]	Activity [2] [%]	Activity [3] [%]	Activity [4] [%]	Activity [5] [%]	Activity [6] [%]	Activity [7] [%]	Activity [8] [%]	Activity [9] [%]	Activity [10] [%]	Activity [11] [%]	Activity [12] [%]	Activity [13] [%]	Activity [14] [%]	Cell viability relative to control [15] [%]	Activity [16] [%]	Activity [17] [%]	Activity [31]	Activity [32]	Activity [33] [%]	other results
CC(C)S(=O)(=O)c1ccc(-c2cnc3[nH]cc(C(=O)N4CCC(c5ccccc5)CC4)c3c2)cc1	30	28	30	28	30	28	30	28	30	28	30	28	30	28	30	28	30	Active	Active	28	Activity [18]: 45%; Activity [19]: 56%; Activity [20]: 30%; Activity [21]: 57%; Activity [22]: 60%; Activity [23]: 49%; Activity [24]: 10%; Activity [25]: 52%; Activity [26]: 90%; Activity [27]: 16%; Activity [28]: 57%; Activity [29]: 42%; Activity [30]: 91%
CCN1CCN(C2CCN(Cc3c[nH]c4ncc(-c5ccc(S(=O)(=O)C(C)C)cc5)cc34)CC2)CC1	87	46	87	46	87	46	87	46	87	46	87	46	87	46	87	46	87	Active	Active	46	Activity [18]: 86%; Activity [19]: 97%; Activity [20]: 83%; Activity [21]: 108%; Activity [22]: 92%; Activity [23]: 81%; Activity [24]: 80%; Activity [25]: 91%; Activity [26]: 88%; Activity [27]: 129%; Activity [28]: 84%; Activity [29]: 82%; Activity [30]: 96%; Activity [34]: Active
CC(C)S(=O)(=O)c1ccc(-c2cnc3[nH]c(C(=O)N4CCc5ccccc5C4)cc3c2)cc1	71	57	71	57	71	57	71	57	71	57	71	57	71	57	71	57	71	Active	50%	57	Activity [34]: Active
